Where a name gives a salt, the structure may show the parent alone. Read-outs that look alike come from different tables or passages of the source.
Experiments:
female CD-1 mice = assay: Acute oral toxicity; assay type: in vivo
Protocol: Acute oral toxicity of salts hydrochloride and fumarate of BTG-1640 was evaluated.
The two salts were dispersed in an aqueous suspension, thus obtaining two formulations, each one orally administered through oesophageous gavage at dose of 2000 mg/kg bw (expressed as free base of BTG 1640) to one of two groups comprising three female CD-1 mice per group.
The observation lasted 14 days.

[1] = Stability test of BTG 1640 salts: purity under preservation conditions; assay type: physicochemical
Protocol: Samples of 100 mg each of BTG 1640 hydrochloride were subjected to the following preservation conditions:
The purities were then analyzed periodically, initially every three months, in order to underline possible variations.
Samples of 100 mg each of BTG 1640 fumarate prepared according to example 1C were subjected to the following preservation conditions:
Quarterly and in an overall period of nine months its purity was then analyzed in order to underline possible variations. The results in the following Table 3 were obtained:
As comparison other salts of BTG 1640 were prepared, and exactly: • BTG 1640 methanesulphonate • BTG 1640 maleate • BTG 1640 succinate following the procedure indicated in example 1 and substituting methanesolphonic, maleic and succinic acids for fumaric acid.
The stabilities were then evaluated by subjecting samples of 100 mg of each salt to the following analogous preservation conditions:
Quarterly and in an overall period of nine months their purity was then analyzed in order to underline possible variations.
The obtained results, together with those obtained in Example 2 for hydrochloride, in Example 3 for fumarate in order to make easier the comparison, were in Table 5 and represented in FIGS. 5-8.

[2] = Absorption kinetic: plasma concentration of BTG 1640 after oral gavage; assay type: in vivo, rats Sprague Dawley; details: rat, in vivo, po, 10 mg/kg
Protocol: Absorption extent and rate of molecule BTG 1640 in its forms of fumarate and hydrochloride salts were evaluated.
With this intent, the two salts were dispersed in an aqueous suspension of arabic gum at 5% thus obtaining two formulations, each one orally administered through oesophageous gavage at dose of 10 mg/kg (expressed as free base of BTG 1640) to five rats Sprague Dawley.
Plasma concentration of molecule BTG 1640 was determined at different time points.

[3] = Stability test of BTG 1640 salts: evaluation of total impurities; assay type: physicochemical
Protocol: Contemporaneously, the impurity analysis in the conditions a)-d) of T/% RH were carried out.
As a confirmation of such evidence, a test for the evaluation of the impurity percentage of the sample subjected to the same conditions a)-d) of T/% RH was parallely carried out. The experimental values in Table 4 were obtained.

[4] = female CD-1 mice, oral gavage 2000 mg/kg bw
[5] = T = 25° C., humidity 60% RH, time 0
[6] = T = 25° C., humidity 60% RH, time 3 (months)
[7] = T = 25° C., humidity 60% RH, time 6 (months)
[8] = T = 25° C., humidity 60% RH, time 9 (months)
[9] = T = 30° C., humidity 65% RH, time 0
[10] = T = 30° C., humidity 65% RH, time 3 (months)
[11] = T = 30° C., humidity 65% RH, time 6 (months)
[12] = T = 30° C., humidity 65% RH, time 9 (months)
[13] = T = 40° C., humidity 75% RH, time 0
[14] = T = 40° C., humidity 75% RH, time 3 (months)
[15] = T = 40° C., humidity 75% RH, time 6 (months)

With `CN1OC2CCCC(=O)C2C1Cc1ccccc1` [BTG 1640 fumarate, fumarate salt of rel-(3R,3aS,7aS)-3-benzyl-2-methyl-2,3,3a,4,5,6,7,7a-octahydrobenzo[d]isoxazol-4-one] the Clinical signs (female CD-1 mice; [4]) was “quickly reversible neurological signs”, the “Histopathological examination of kidneys” value (female CD-1 mice; [4]) was “only a mild dilatation of convoluted tubules” and the “Toxicity compared with hydrochloride” value (female CD-1 mice; female mice, 2000 mg/kg bw) was “strongly less toxic”. The “Stability compared with BTG 1640 hydrochloride” value [1] was “higher stability”, the Purity % ([1]; T = 5° C., time 0) was 99.5% and the Purity % ([1]; T = 5° C., time 3 (months)) was 100.0%. It also gave a Purity % ([1]; T = 5° C., time 6 (months)) of 100.0%, a Purity % ([1]; T = 5° C., time 9 (months)) of 99.9% and a Purity % [1, 5] of 99.5%. The Purity % [1, 6] was 100.0%, the Purity % [1, 7] was 100.0% and the Purity % [1, 8] was 99.9%. For the same molecule, the Purity % [1, 9] was 99.5%, the Purity % [1, 10] was 100.0% and the Purity % [1, 11] was 100.0%. It also gave a Purity % [1, 12] of 99.9%, a Purity % [1, 13] of 99.5% and a Purity % [1, 14] of 100.0%. The Purity % [1, 15] was 100.0%, the concentration at 2 min ([2]; Sprague Dawley) was 1.07 µg/mL and the concentration at 5 min ([2]; Sprague Dawley) was 2.35 µg/mL. It also gave a concentration at 30 min ([2]; Sprague Dawley) of 0.838 µg/mL, a concentration at 90 min ([2]; Sprague Dawley) of 0 µg/mL and a concentration at 300 min ([2]; Sprague Dawley) of 0 µg/mL. For the same molecule, the “Plasma concentration of free BTG 1640 with respect to hydrochloride” value [2] was “not significantly higher”, the “availability of the active principle in the circulation” value [2] was “more favourable” and the “% impurities” value ([3]; T = 5° C., time 0) was 0.49%. The “% impurities” value ([3]; T = 5° C., time 3 (months)) was 0.10%, the “% impurities” value ([3]; T = 5° C., time 6 (months)) was 0.10% and the “% impurities” value ([3]; T = 5° C., time 9 (months)) was 0.10%. For the same molecule, the “% impurities” value [3, 5] was 0.49%, the “% impurities” value [3, 6] was 0.10% and the “% impurities” value [3, 7] was 0.10%. For the same molecule, the “% impurities” value [3, 8] was 0.10%, the “% impurities” value [3, 9] was 0.49% and the “% impurities” value [3, 10] was 0.10%. The “% impurities” value [3, 11] was 0.10%, the “% impurities” value [3, 12] was 0.10% and the “% impurities” value [3, 13] was 0.49%. For the same molecule, the “% impurities” value [3, 14] was 0.10%, the “% impurities” value [3, 15] was 0.10% and the “Impurities (in words)” value ([3]; condition d): 40° C./75% RH) was “invariable impurity profile”.
In the case of `CN1OC2CCCC(=O)C2C1Cc1ccccc1.O=C(O)/C=C\C(=O)O` (stereo not shown) [BTG 1640 maleate], the Purity % ([1]; T = 5° C., time 0) is reported as 99.8%, the Purity % ([1]; T = 5° C., time 3 (months)) is reported as 100.0% and the Purity % ([1]; T = 5° C., time 6 (months)) is reported as 100.0%. It also gave a Purity % ([1]; T = 5° C., time 9 (months)) of 99.8%, a Purity % [1, 5] of 99.8% and a Purity % [1, 6] of 99.8%. It also gave a Purity % [1, 7] of 100.0%, a Purity % [1, 8] of 99.7% and a Purity % [1, 9] of 99.8%. The Purity % [1, 10] was 99.5%, the Purity % [1, 11] was 98.9% and the Purity % [1, 12] was 95.9%. The Purity % [1, 13] was 99.8%, the Purity % [1, 14] was 24.4% and the “Degradation (in words)” value ([1]; condition c) 30° C./65% RH, at sixth month) was “considerable degradation”. For the same molecule, the “Stability (in words)” value ([1]; condition d): 40° C. and 75% RH) was “degrades in unacceptable way”, the “Stability profile (in words)” value ([1]; conditions a) and b)) was “acceptable profile” and the “Stability compared with BTG 1640 hydrochloride” value ([1]; conditions a)-d)) was “even worse”. For the same molecule, the “% impurities” value ([3]; T = 5° C., time 0) was 0.23%, the “% impurities” value ([3]; T = 5° C., time 3 (months)) was 0.10% and the “% impurities” value ([3]; T = 5° C., time 6 (months)) was 0.10%. The “% impurities” value ([3]; T = 5° C., time 9 (months)) was 0.19%, the “% impurities” value [3, 5] was 0.23% and the “% impurities” value [3, 6] was 0.22%. The “% impurities” value [3, 7] was 0.10%, the “% impurities” value [3, 8] was 0.29% and the “% impurities” value [3, 9] was 0.23%. For the same molecule, the “% impurities” value [3, 10] was 0.49%, the “% impurities” value [3, 11] was 1.10% and the “% impurities” value [3, 12] was 4.20%. The “% impurities” value [3, 13] was 0.23% and the “% impurities” value [3, 14] was 75.60%.
Molecule `CN1OC2CCCC(=O)C2C1Cc1ccccc1.CS(=O)(=O)O` (stereo not shown) [BTG 1640 methanesulphonate] has a Purity % ([1]; T = 5° C., time 0) of 99.6%, a Purity % ([1]; T = 5° C., time 3 (months)) of 99.5% and a Purity % ([1]; T = 5° C., time 6 (months)) of 99.3%. For the same molecule, the Purity % ([1]; T = 5° C., time 9 (months)) was 99.1%, the Purity % [1, 5] was 99.6% and the Purity % [1, 6] was 98.2%. It also gave a Purity % [1, 7] of 97.1%, a Purity % [1, 8] of 95.0% and a Purity % [1, 9] of 99.6%. The Purity % [1, 10] was 96.0%, the Purity % [1, 11] was 86.8% and the Purity % [1, 12] was 74.2%. The Purity % [1, 13] was 99.6%, the Purity % [1, 14] was 81.5% and the Purity % [1, 15] was 5.7%. For the same molecule, the “Stability compared with BTG 1640 hydrochloride” value ([1]; conditions a)-d)) was “even worse”, the “Degradation (in words)” value ([1]; conditions b)-d)) was “begins to degrade already after three months” and the “% impurities” value ([3]; T = 5° C., time 0) was 0.42%. The “% impurities” value ([3]; T = 5° C., time 3 (months)) was 0.55%, the “% impurities” value ([3]; T = 5° C., time 6 (months)) was 0.74% and the “% impurities” value ([3]; T = 5° C., time 9 (months)) was 0.91%. For the same molecule, the “% impurities” value [3, 5] was 0.42%, the “% impurities” value [3, 6] was 1.80% and the “% impurities” value [3, 7] was 2.90%. For the same molecule, the “% impurities” value [3, 8] was 5.00%, the “% impurities” value [3, 9] was 0.42% and the “% impurities” value [3, 10] was 4.00%. The “% impurities” value [3, 11] was 13.20%, the “% impurities” value [3, 12] was 25.80% and the “% impurities” value [3, 13] was 0.42%. For the same molecule, the “% impurities” value [3, 14] was 18.50% and the “% impurities” value [3, 15] was 94.30%.
Work on `CN1OC2CCCC(=O)C2C1Cc1ccccc1.O=C(O)CCC(=O)O` (stereo not shown) [BTG 1640 succinate] yielded a Purity % ([1]; T = 5° C., time 0) of 99.2%, a Purity % ([1]; T = 5° C., time 3 (months)) of 98.0% and a Purity % ([1]; T = 5° C., time 6 (months)) of 98.1%. The Purity % ([1]; T = 5° C., time 9 (months)) was 96.8%, the Purity % [1, 5] was 99.2% and the Purity % [1, 6] was 92.7%. The Purity % [1, 7] was 87.0%, the Purity % [1, 8] was 90.5% and the Purity % [1, 9] was 99.2%. It also gave a Purity % [1, 10] of 85.4%, a Purity % [1, 11] of 71.5% and a Purity % [1, 12] of 66.8%. For the same molecule, the Purity % [1, 13] was 99.2%, the Purity % [1, 14] was 16.5% and the “Stability compared with BTG 1640 hydrochloride” value ([1]; conditions a)-d)) was “even worse”. For the same molecule, the “Degradation (in words)” value ([1]; conditions a)-d), from the third month) was “shows degradation at all observation conditions”, the “% impurities” value ([3]; T = 5° C., time 0) was 0.77% and the “% impurities” value ([3]; T = 5° C., time 3 (months)) was 2.00%. The “% impurities” value ([3]; T = 5° C., time 6 (months)) was 1.90%, the “% impurities” value ([3]; T = 5° C., time 9 (months)) was 3.20% and the “% impurities” value [3, 5] was 0.77%. The “% impurities” value [3, 6] was 7.30%, the “% impurities” value [3, 7] was 13.00% and the “% impurities” value [3, 8] was 9.50%. The “% impurities” value [3, 9] was 0.77%, the “% impurities” value [3, 10] was 14.60% and the “% impurities” value [3, 11] was 28.50%. For the same molecule, the “% impurities” value [3, 12] was 33.30%, the “% impurities” value [3, 13] was 0.77% and the “% impurities” value [3, 14] was 83.50%.

From patent publication US20100069450A1, “SALT OF 3-BENZYL-2-METHYL-2,3,3A,4,5,6,7, 7A- OCTAHYDROBENZO[D]ISOXAZOL-4-ONE” (ABIOGEN PHARMA S.P.A, priority 2006, published 2010)
